Measurements from patent publication US11478474B2, “2-(3′-(hydroxymethyl)-1-methyl-5-((5-(2-methyl-4-(oxetan-3-yl)piperazin-1-yl)pyridin-2-yl)amino)-6-oxo-1,6-dihydro-[3,4′-bipyridin]-2′-yl)-7,7-dimethyl-7,8-dihydro-2H-cyclopenta[4,5]pyrrolo[1,2-a]pyrazin-1(6H)-one as a BTK inhibitor” (HUTCHISON MEDIPHARMA LIMITED, priority 2020, dated 2022).

What was measured:
[1] = In vivo efficacy of the inhibitory effect on BTK target (anti-IgD antibody-induced B cell activation in mice whole blood after in vivo administration); settings: female, C57BL/6, mouse; 20 mg/kg single oral gavage, 16 h, mice plasma; read-out: Drug concentration in plasma
Method: (§1) Objects: B cells in mice whole blood were induced and activated by the anti-IgD antibody, and the inhibitory effect of the compound of the present invention on B cell activation in vivo was studied, so as to determine the inhibitory effect of the compound of the present invention on the BTK target in vivo.
(§2) Methods: C57BL/6 mice (female, 18-20 g, purchased from Shanghai Lingchang Biotechnology Co., Ltd.) were grouped according to Table 2.
(§3) The animals of each group were administered, then were placed in CO2 for anesthesia at designated time points, blood samples were taken from […] via retro-orbital bleeding, and heparin was used for anticoagulation; 90 μL of whole blood was taken from mice of each group, and added to a 96 well culture plate, and anti-mouse IgD antibody (BIO-RAD, Cat #MCA4693) was added to each well to a final concentration of 0.01 μg/μL (respectively for the each drug-treated group and anti-IgD antibody-inducted vehicle group); in addition, 90 μL of whole blood of mice in the vehicle group was taken and added to the 96-well culture plate, and PBS (phosphate buffer, GIBCO, Cat #C20012500BT) was added to each well to a final concentration of 0.01 μg/μL (namely, the vehicle control group); Each group was mixed well and incubated in a 37° C./5% CO2 incubator for 4 hours. In addition, the blood of mice in the drug-treated group was centrifuged to separate plasma for blood concentration analysis.
(§4) Calculation for B Cell Activation Ratio: B cell activation ratio=percentage of CD69+CD19+double positive B cells/percentage of CD19+single positive B cells
(§5) Calculation for Inhibition Ratio: Inhibition ratio=(percentage of B cell activation ratio in anti-IgD antibody-induced vehicle group-percentage of B cell activation ratio in drug-treated group)/(percentage of B cell activation ratio in anti-IgD antibody-induced vehicle group-percentage of B cell activation ratio in vehicle control group)×100%
(§6) All data are represented by mean±standard error. For the comparison between each drug-treated group and the anti-IgD antibody-induced vehicle group, p value was calculated by Graphpad Prism using one-way ANOVA analysis of variance and Dunnett's test, and for the comparison between each drug-treated group, p value was calculated by using unpaired t test.

[2] = system: B cell activation in mouse whole blood induced by anti-IgD antibodies; test: as above
Method: as §1, §2, §3, §4, §5, §6

[3] = target: phosphorylated BTK in Ramos cells (Homo sapiens (Human), UniProt Q06187); test: Determination of phosphorylated BTK in Ramos cells (BTK phospho-Y223 HTRF); format: cell-based; settings: anti-human IgM + hydrogen peroxide stimulation
Summary of the method: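 Ramos cells starved 2 h in 1% FBS, then treated 1 h with compound (0.00018–3.0 μM, 0.3% DMSO). They were then stimulated 10 min at 37° C. with anti-human IgM (10 μg/mL) plus H2O2 (3.3 mM). Lysates read by BTK phospho-Y223 HTRF (665/615 nm ratio); IC50 fitted from inhibition normalized to stimulated and unstimulated controls.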

[4] = Stability test in liver microsomes (rat); format: in vitro ADME
Text: (§7) Example 5 Stability Test in Liver Microsomes
(§8) Both male CD-1 mouse pooled liver microsomes and male SD rat pooled liver microsomes were purchased from BioreclamationIVT Corporation, USA.
(§9) Phenacetin, glucose-6-phosphate dehydrogenase (G-6-PDH) and nicotinamide adenine dinucleotide phosphate (NADP) were all purchased from Sigma-Aldrich Corporation, USA. Glucose-6-phosphate (G-6-P) was purchased from Shanghai Eybridge Chemical Technology Co., Ltd.
(§10) Ten mM test compound stock solution: a certain amount of test compound was weighed, and dissolved with an appropriate volume of DMSO to prepare a stock solution with a concentration of 10 mM for use.
(§11) Reaction stopping solution: an appropriate amount of internal standard compound phenacetin was dissolved in acetonitrile to prepare a reaction stopping solution with a concentration of 1000 ng/mL for use at room temperature.
(§12) The test compound stock solution was diluted with an organic solvent (usually a mixture of acetonitrile, methanol and water with various ratios, depending on the solubility of the compound, if necessary, 1 N hydrochloric acid or 1 N sodium hydroxide would be added to facilitate solubilization) to the 0.1 mM (the final concentration of the compound in the reaction system was 1 μM) and the concentration percentage of the organic solvents in the incubation system no more than 1% (wherein the percentage of DMSO was required to be no more than 0.1%). An appropriate amount of 100 mM NADP, 500 mM G-6-P and 100 Unit/mL G-6-PDH were mixed and diluted with ultrapure water (the final system contains 1 mM NADP, 5 mM G-6-P and 1 Unit/mL G-6-PDH), pre-incubated in a 37° C. water bath for 10 minutes and then placed on ice for use as a NADPH regeneration solution. 20 mg/mL liver microsomes solution and 200 mM phosphate buffer was mixed, and diluted with ultrapure water to give a liver microsomes solution containing 2.5 mg/mL liver microsomes (the final concentration of the reaction system is 0.5 mg/mL) and 50 mM phosphate buffer. The diluted liver microsomes solution was mixed with 0.1 mM compound solution, a mixture of 100 mM EDTA, 300 mM MgCl2 solution, 200 mM phosphate buffer (the final system was 3 mM MgCl2, 1 mM EDTA and 50 mM phosphate buffer) and water in an appropriate volume was added. Finally, the NADPH regeneration solution was added, then the reaction solution was placed in a 37° C. water bath to start the reaction (the reaction time was 30 minutes), and the reaction was stopped by adding the ice-cold acetonitrile reaction stopping solution containing the internal standard. The 0-minute sample was not incubated in a 37° C. water bath, and its difference from the 30-minute sample further lies in that the ice-cold acetonitrile reaction stopping solution containing the internal standard was added first, and then the NADPH regeneration solution was added. The sample added with the reaction stopping internal standard solution was vortexed and mixed well, and then centrifuged at 4400 rpm for 10 minutes. The supernatant was taken and diluted ten times with 50% methanol for LC-MS/MS analysis.
(§13) LC-MS/MS was used to determine the concentration of the compound in the sample. The percentage of the remaining compound after 30 minutes of incubation comparing with that in the 0-minute sample was calculated using the peak area ratio of the compound to the internal standard as an indicator, to evaluate the metabolic stability of the compound.
(§14) Instrument: API4500, API4000 or LTQ Mass Spectrometer; the liquid phase is UHPLC system (Shimadzu LC-30 AD, model Nexra X2) including liquid delivery unit, column thermostat, detector and autosampler; or Agilent 1200 Binary Pump series HPLC and CTC Autosampler.
(§15) Chromatographic column: Waters XSELECT Hss T3 C18 (2.5 μm, 2.1×50 mm) or […] (5 μm, 2.0×50 mm)
(§16) A: water with 0.1% FA (formic acid) (with or without 0.1% ACN (acetonitrile))
(§17) B: acetonitrile with 0.1% FA (formic acid).

[5] = Stability test in liver microsomes (mouse); format: in vitro ADME; settings: mouse liver microsomes 0.5 mg/mL, compound 1 μM, 37° C.
Text: as §7, §8, §9, §10, §11, §12, §13, §14, §15, §16, §17

Sequence of phosphorylated BTK in Ramos cells (Q06187 whole entry): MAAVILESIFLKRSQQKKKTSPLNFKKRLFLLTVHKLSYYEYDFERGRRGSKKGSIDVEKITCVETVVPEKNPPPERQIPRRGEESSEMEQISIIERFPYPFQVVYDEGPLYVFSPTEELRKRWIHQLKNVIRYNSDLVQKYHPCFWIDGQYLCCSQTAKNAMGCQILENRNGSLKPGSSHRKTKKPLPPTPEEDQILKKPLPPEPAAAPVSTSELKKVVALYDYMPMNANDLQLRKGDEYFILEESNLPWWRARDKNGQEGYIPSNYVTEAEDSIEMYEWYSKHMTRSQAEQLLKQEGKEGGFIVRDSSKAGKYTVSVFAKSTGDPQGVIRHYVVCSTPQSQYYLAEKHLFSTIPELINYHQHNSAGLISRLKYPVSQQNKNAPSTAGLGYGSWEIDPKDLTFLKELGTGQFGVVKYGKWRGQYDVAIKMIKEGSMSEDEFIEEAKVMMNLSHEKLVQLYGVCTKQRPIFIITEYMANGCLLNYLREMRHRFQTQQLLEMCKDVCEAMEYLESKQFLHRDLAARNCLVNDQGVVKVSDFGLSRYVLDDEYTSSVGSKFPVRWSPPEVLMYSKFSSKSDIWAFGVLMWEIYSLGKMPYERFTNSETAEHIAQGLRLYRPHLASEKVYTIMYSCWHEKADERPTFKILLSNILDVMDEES

| SMILES | concentration at 16 h [1] | Inhibition ratio (%) ([2]; 20 mg/kg single oral gavage, 16 h) | B cell activation ratio (the proportion of activated B cells to total B cells) ([2]; 20 mg/kg single oral gavage, 16 h, mean ± standard error) | inhibition ratio on B cell activation ([2]; 20 mg/kg, 16 hours after administration, mice whole blood, anti-IgD antibody) | IC50 [3] | stability in rat & mouse liver microsomes compared with the reference GDC-0853 ([4]; rat & mouse liver microsomes, 30 minutes) | RLM (percentage of the remaining compound after 30 minutes of incubation) ([4]; rat liver microsomes 0.5 mg/mL, compound 1 μM, 37° C.) | MLM (percentage of the remaining compound after 30 minutes of incubation) [5] |
| --- | --- | --- | --- | --- | --- | --- | --- | --- |
| Cn1cc(-c2ccnc(-n3ccn4c5c(cc4c3=O)CC(C)(C)C5)c2CO)cc(Nc2ccc(N3CCN4CCOCC4C3)cn2)c1=O (racemic) [Compound 232] | 76.2 ± 41.7 ng/mL | 89% | 8.4 ± 1.9^***& | 89% | – | – | – | – |
| Cn1cc(-c2ccnc(-n3ccn4c5c(cc4c3=O)CC(C)(C)C5)c2CO)cc(Nc2ccc(N3CCN(C4COC4)CC3=O)cn2)c1=O [Compound 34] | – | – | – | – | 10 nM | better than that of the reference GDC-0853 | ~100% | 89.5% |
